This note sets out measurements from patent US7049331B2, “1,2,4-thiadiazole derivatives as melanocortin receptor modulators” (Ortho-McNeil Pharmaceutical, Inc., priority 2001, dated 2006).

Like-named read-outs stand apart in the source and are kept apart here.

One assay deals with Cortical Cells. The assay can be described thus: Neurite Cell Outgrowth Assay, cortical cells. It counts as cell-based. Particulars: Rattus norvegicus; 50 nM; percent change over the vehicle response; NA = no change/not active. An excerpt: (§1) Dissociated hippocampal and cortical cell cultures were established from embryonic day 18 rat fetuses as described by Mattson, M. P., Barger, S. W., Begley, J, and Mark, R. J., Methods Cell Biol., 1994, 46:[…]. Briefly, fetuses were removed via cesarean section from pregnant moms (Sprague-Dawley) and anesthetized with halothane according to the AVMA Panel on Euthanasia. Pups were decapitated and the brains were removed and placed in HEPES-buffered Hank's Balanced Salt solution (HBSS; Gibco). The hippocampi and cortices were dissected out and pooled according to tissue-type. Tissue was trypsinized for 15 min (1 mg/ml trypsin-HBSS; Worthington), rinsed with fresh HBSS, incubated in trypsin inhibitor (1 mg/ml; Sigma) for 5 min, rinsed again with fresh HBSS and then triturated in 1 ml fresh HBSS with a fire-polished glass pipette. Dissociated cells were seeded at 30,000 cells/well onto poly-D-lysine coated 96-well plates (Collaborative BioScience). Each well contained 100 μl of Eagle's Minimal Essential Media (MEM; Gibco) supplemented with 26 mM NaHCO3 (Sigma), 56 mM glucose (Sigma), 15 mM KCl (Sigma), 1 mM sodium pyruvate (Sigma), 1.1 mM L-glutamine (Sigma), 10% (v/v) heat-inactivated fetal bovine serum (Hyclone), and 0.001% gentamicin sulfate (Sigma) (pH 7.4). Cells were allowed to attach for 24 h in a humidified 37° C. 5% CO2 incubator before experimental treatment. The culture media was aspirated and exchanged with fresh media every 3 days.
(§2) Twenty-four hours after plating, cultures were treated with vehicle (PBS+0.1% BSA), alpha-melanocyte stimulating hormone (α-MSH) or test compound (diluted in DPBS). Each treatment condition was run in quadruplicate. On the third day in culture, the media was aspirated off and replaced with fresh media and test compound. At one week in culture, the cells were fixed with 10% phosphate-buffered formalin for 15 min, then rinsed with DPBS (Sigma) and placed in blocking serum for 30 min (horse serum; 1:50 dilution in DPBS; Vector Labs). The cultures were rinsed again with DPBS and then incubated in primary antibody for 2 hr (microtubule-associated protein-2 (MAP-2) is a selective marker for dendritic processes; anti-mouse monoclonal (Chemicon); 1:1000 dilution of MAP-2 in antibody diluent (Zymed)). Negative control wells were incubated in antibody diluent alone. Background signal was determined by blank wells (cell-free) incubated with or without antibody. Cultures were rinsed again with DPBS and then placed in fluorescein for 1 hr (FITC; anti-mouse IgG; rat adsorbed; 1:50 dilution in DPBS; Vector Labs). Cultures were rinsed a final time with DPBS and the plates were then read on a Cytofluor 4000 fluorescence plate reader. Neurite outgrowth was expressed as percent change from control (vehicle).
(§3) The data are expressed as percent change over the vehicle response. All compounds were screened at 50 nM. The abbreviation NA indicates no change/not active; the abbreviation ND indicates a compound not tested/response not determined.

In assay [1] the target is T1, melanocortin MC-4 receptor (Homo sapiens, UniProt P32245).
T1 construct: purchased Receptor Biology Inc
T1 sequence (P32245 whole entry): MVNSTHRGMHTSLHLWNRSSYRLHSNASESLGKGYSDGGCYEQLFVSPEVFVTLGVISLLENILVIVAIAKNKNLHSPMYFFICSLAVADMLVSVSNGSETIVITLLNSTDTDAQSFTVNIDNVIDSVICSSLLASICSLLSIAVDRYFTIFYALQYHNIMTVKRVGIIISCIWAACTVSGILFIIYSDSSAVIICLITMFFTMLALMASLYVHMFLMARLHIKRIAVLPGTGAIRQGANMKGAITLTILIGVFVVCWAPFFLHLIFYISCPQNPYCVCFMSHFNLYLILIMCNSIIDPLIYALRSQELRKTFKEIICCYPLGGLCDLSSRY
The assay can be described thus: Melanocortin MC-4 Receptor Binding Assay (SPA). How it is done: Melanocortin MC-4 Receptor Binding Assay Melanocortin [MC-4]-membrane [purchased from Receptor Biology Inc] was coupled to wheat germ agglutinin coated polyvinyl toluene-Scintillation Proximity Assay beads [purchased from Amersham Pharmacia Inc.] for 30 min at 25° C. Into each well of a 96-well Opti plate [purchased from Packard, Calif.], 2.5 μg of membrane and 0.25 mg of beads were mixed in a volume of 100 μL media. […] Test compounds (1.5 μL) at 1 mM in 30% DMSO-50 mM HEPES, pH 7.4 buffer was added to separate wells on the plate. Radioactive ligand ^125I-NDP-melanocyte stimulating hormone [NEN, 2000Ci/mmol] was added to each well (48.5 μL per well, 40 pM final concentration). The plate was then sealed and let stand for 16 hr at 25° C. NDP-Melanocyte stimulating hormone peptide and α-melanocyte stimulating hormone peptide [purchased from Palomar Research Inc, 1 μM] were used as reference inhibitor compounds to define non-specific binding (N). Total binding (T) was defined using 30% DMSO-50 mM HEPES, pH 7.4 buffer. Bound radioactivity for each well (Y), measured at counts per minute (cpm) was measured in a TopCount [Packard, Calif.]. Percent inhibition was calculated as: […] The procedures described above for the melanocortin MC-4 receptor were repeated for the melanocortin MC-3 receptor. Following the procedures described, representative compounds of the present invention were tested for binding in the MC-4 and/or MC-3 assay, as listed in Table 4.

The target of assay [2] is T1, melanocortin MC-4 receptor. The assay can be described thus: MC-4 receptor binding (Filtration). The conditions noted are these: Filtration; read-out: IC50 MC-4 (μM) (Filtration). As to the method:
The procedures described above for the melanocortin MC-4 receptor were repeated for the melanocortin MC-3 receptor. Following the procedures described, representative compounds of the present invention were tested for binding in the MC-4 and/or MC-3 assay, as listed in Table 4.

The test system of another assay is Food-Deprived Rats. The assay is described as follows: Rodent Feeding: Food Intake in Food-Deprived Rats (MC-4). It counts as in vivo, rat. Particulars: Rattus norvegicus. An excerpt: Rodent Feeding: Food Intake in Food-Deprived Rats (MC-4)
Male Long-Evans rats (180–200 grams) were housed individually and maintained on a once-a-day feeding schedule (i.e.10 a.m. until 4 p.m.) for five days following quarantine to allow the animals to acclimate to feeding on powdered chow (#5002 PMI Certified Rodent Meal) during the allotted time. The chow was made available in an open jar, anchored in the cage by a wire, with a metal follower covering the food to minimize spillage. Water was available ad-libitum.
Animals were fasted for 18 hours prior to testing. At the end of the fasting period, animals were administered either a test compound or vehicle. Vehicle and test compound were administered either orally (5 mL/kg) 60 minutes prior to the experiment, subcutaneously (1 mL/kg) 30 minutes prior to the experiment, or intraperitoneally (1 mL/kg) 30 minutes prior to the experiment. Test compounds were administered orally as a suspension in aqueous 0.5% methylcellulose-0.4% Tween 80, or intraperitoneally as a solution or suspension in PEG 200; compound concentrations typically ranged from 1 mg/kg to 100 mg/kg, preferably from 10–30 mg/kg. Food intake was measured at 2, 4, and 6 hours after administration by weighing the special jar containing the food before the experiment and at the specified times. Upon completion of the experiment, all animals were given a one-week washout period before re-testing.
Following the procedure described above, select compounds of the present invention were tested to measure the effect on food intake in fasted rats, as listed in Table 5 and 6.

In a further assay the test system is Hippocampal Cells. The assay can be described thus: Neurite Cell Outgrowth Assay, hippocampal cells. Type of assay: cell-based. Particulars: Rattus norvegicus; 50 nM; percent change over the vehicle response; NA = no change/not active.
From the text: as §1, §2, §3

Setting [3] is: ip, 2 h, ip, read-out: Change in Food Intake 0–2 hrs (%).
[4] abbreviates: ip, 6 h, ip, read-out: Change in Food Intake 2–6 hrs (%).
Setting [5] is: po, 2 h, po, read-out: Change in Food Intake 0–2 hrs (%).
Where [6] appears, read: po, 6 h, po, read-out: Change in Food Intake 2–6 hrs (%).

As to `Cc1ccccc1-[n+]1sc(Nc2ccccc2)nc1-c1ccccc1` [Compound 8], the activation at 0.05 µM in the assay with Cortical Cells was found to be 12%. For the same molecule, the IC50 in assay [1] worked out at 201 nM; in assay [2], 1.4 µM.

`COc1ccc(Nc2nc(-c3ccccc3)[n+](-c3ccccc3OC)s2)cc1` [Compound 29] came in with an activation at 0.05 µM with Cortical Cells of 8%. Further, the values for the change in vivo at 10 mg/kg in the assay on Food-Deprived Rats (setting [3]) and in the assay on Food-Deprived Rats (setting [4]) were -62.3% and -70.7%, respectively. Further, the change in vivo at 30 mg/kg in the assay with Food-Deprived Rats (setting [5]) is -26.3%; in the assay on Food-Deprived Rats (setting [6]), -3.7%. Besides, the IC50 in assay [1] was 48 nM.

`COc1ccccc1-[n+]1sc(Nc2ccccc2Cl)nc1-c1ccccc1` [Compound 34] showed an activation at 0.05 µM in the assay on Cortical Cells of 22%. The change in vivo at 10 mg/kg in the assay with Food-Deprived Rats (setting [3]) was -38%; in the assay on Food-Deprived Rats (setting [4]), -72%; with Food-Deprived Rats (setting [5]), -1.3%; with Food-Deprived Rats (setting [6]), -6%. For the same molecule, the figures for the change in vivo at 30 mg/kg in the assay with Food-Deprived Rats (setting [5]) and in the assay on Food-Deprived Rats (setting [6]) were -7.5% and 2%, respectively. Further, the IC50 in assay [1] is 46 nM.

On to `COc1ccccc1Nc1nc(-c2ccccc2)[n+](-c2ccccc2C)s1` [Compound 10], for which the activation at 0.05 µM in the assay with Cortical Cells is 11%; with Hippocampal Cells, 7%. For the same molecule, the IC50 in assay [1] is 130 nM; in assay [2] it was 2.3 µM.

For `Cc1ccc(Nc2nc(-c3ccccc3)[n+](-c3ccccc3C)s2)cc1` [Compound 11], the activation at 0.05 µM with Cortical Cells was determined as 10%; in the assay on Hippocampal Cells it was 9%. For the same molecule, the figures for the IC50 in assay [1] and in assay [2] were 243 nM and 2.4 µM, respectively.

Turning to `Clc1ccccc1Nc1nc(-c2ccccc2)[n+](-c2ccccc2)s1` [Compound 49], the activation at 0.05 µM in the assay with Cortical Cells turned out to be 51%; in the assay on Hippocampal Cells, 16%. Besides, the results for the change in vivo at 30 mg/kg with Food-Deprived Rats (setting [3]) and in the assay with Food-Deprived Rats (setting [4]) were -20.6% and -21.2%, respectively. The molecule also gave an IC50 in assay [1] of 96 nM.

`Cc1ccccc1Nc1nc(-c2ccccc2)[n+](-c2ccccc2)s1` [Compound 26]: the activation at 0.05 µM in the assay with Cortical Cells was found to be 47%; in the assay with Hippocampal Cells it was 16%. Besides, the change in vivo at 10 mg/kg in the assay with Food-Deprived Rats (setting [3]) is -12.7%; in the assay on Food-Deprived Rats (setting [4]), -32.3%. In assay [1], this molecule registered an IC50 of 63 nM.

`Cc1ccc(-[n+]2sc(Nc3ccccc3Cl)nc2-c2ccccc2)cc1` [Compound 7] came in with an activation at 0.05 µM in the assay with Cortical Cells of 11%. The IC50 in assay [1] is 218 nM; in assay [2] it was 2.2 µM.

In the case of `COc1ccccc1-[n+]1sc(Nc2ccccc2C)nc1-c1ccccc1` [Compound 32], the activation at 0.05 µM with Cortical Cells amounted to 6%. For the same molecule, in the assay on Food-Deprived Rats (setting [3]), the change in vivo at 10 mg/kg was -29.6%. Further, the change in vivo at 10 mg/kg in the assay on Food-Deprived Rats (setting [4]) was -60.2%. Besides, in the assay on Food-Deprived Rats (setting [5]), the change in vivo at 1 mg/kg was -13.8%, the change in vivo at 3 mg/kg was -11.5%, the change in vivo at 10 mg/kg is -20% and the change in vivo at 30 mg/kg is -12.5%. For the same molecule, in the assay on Food-Deprived Rats (setting [6]), the change in vivo at 1 mg/kg was 26%, the change in vivo at 3 mg/kg amounted to 31.2%, the change in vivo at 10 mg/kg is -1% and the change in vivo at 30 mg/kg is -15%. The molecule also showed an IC50 in assay [1] of 48 nM.

With `Cc1ccccc1Nc1nc(-c2ccccc2)[n+](-c2ccc(Cl)cc2)s1` [Compound 19], the results for the IC50 in assay [1] and in assay [2] were 460 nM and 3.9 µM, respectively. In the assay on Hippocampal Cells, this molecule yielded an activation at 0.05 µM of 22%.

Consider `Clc1ccc(Nc2nc(-c3ccccc3)[n+](-c3ccc(Cl)cc3)s2)cc1` [Compound 20], for which the values for the IC50 in assay [1] and in assay [2] were 636 nM and 3.5 µM, respectively. In the assay with Hippocampal Cells, this molecule gave an activation at 0.05 µM of 17%.

With `Cc1ccccc1Nc1nc(-c2ccccc2)[n+](-c2ccccc2Cl)s1` [Compound 46], the activation at 0.05 µM in the assay with Cortical Cells is 19%; in the assay with Hippocampal Cells, 40%. This molecule showed an IC50 in assay [1] of 368 nM.

With `Clc1ccc(Nc2nc(-c3ccccc3)[n+](-c3ccccc3Cl)s2)cc1` [Compound 47], the activation at 0.05 µM was 13% in the assay with Cortical Cells and 20% with Hippocampal Cells. Moreover, the IC50 in assay [1] came to 874 nM.

Take `COc1ccc(-c2nc(Nc3ccccc3Cl)s[n+]2-c2ccc(OC)cc2)cc1` [Compound 63]: the activation at 0.05 µM in the assay with Cortical Cells was 17%; with Hippocampal Cells, 20%. The IC50 in assay [1] was found to be 1000 nM.

In the case of `COc1ccc(-[n+]2sc(Nc3ccccc3Cl)nc2-c2ccccc2)cc1` [Compound 41], the figures for the activation at 0.05 µM in the assay on Cortical Cells and in the assay with Hippocampal Cells were 5% and 36%, respectively. This molecule registered an IC50 in assay [1] of 483 nM.

`COc1ccc(Nc2nc(-c3ccccc3)[n+](-c3ccccc3C)s2)cc1` [Compound 9]: the IC50 was 217 nM in assay [1] and 1.1 µM in assay [2].

Take `Clc1ccc(Nc2nc(-c3ccccc3)[n+](-c3ccccc3)s2)cc1` [Compound 27]: the activation at 0.05 µM in the assay with Cortical Cells stood at 52%; in the assay with Hippocampal Cells it was 17%. Also, the results for the change in vivo at 30 mg/kg with Food-Deprived Rats (setting [3]) and in the assay with Food-Deprived Rats (setting [4]) were -27.4% and -29.1%, respectively. The molecule further showed an IC50 in assay [1] of 89 nM.

As for `COc1ccccc1Nc1nc(-c2ccccc2)[n+](-c2ccccc2)s1` [Compound 24], the activation at 0.05 µM came to 16% in the assay on Cortical Cells and 10% in the assay with Hippocampal Cells. The molecule also displayed an IC50 in assay [1] of 76 nM.
